This is an account of results in patent US20220226283A1, “COMBINATION PRODUCT CONTAINING LIMONOID COMPOUND AND DPP-4 INHIBITOR” (ZHEJIANG YANGSHENGTANG INSTITUTE OF NATURAL MEDICATION CO., …, priority 2019, published 2022).

Assay type in all cases: in vivo
The subject of assay [1] is db/db mice. In words: Blood glucose in mouse type II diabetes model (limonoid compound, saxagliptin or combination). Particulars: single administration 0.04 g/kg per day by gavage, two weeks, 1 h after the last administration, mean ± SD. From the text: (§1) In the present example, db/db mice (line name BKS.Cg-Dock7^m+/+Lepr^db/Nju) were used to perform hypoglycemic efficacy evaluation test of animals (blood glucose level and leptin). The limonoid compound was selected from obacunone, isoobacunoic acid and obacunone glycoside, and saxagliptin single administration group, obacunone single administration group, isoobacunoic acid single administration group, obacunone glycoside single administered group, and respective combination thereof with saxagliptin administration groups were set.
(§2) Conditions for experimental feeding: as type II diabetes model mice, 6-week-old SPF-grade db/db mice were purchased from the Nanjing Model Biology Institute, and subjected to experimental feeding after 7 days of preliminary feeding. It should be noted that the conditions for raising the mice were as follows: the temperature was 23±1° C., the humidity was 55±10%, the lights were turned on between 7 am and 7 pm (the lights were turned off at other time), and the mice were allowed to freely take in water and feed. The experimental feed was mouse growth-stable feed (GB M2118), and the daily feeding and management of the animals were under the responsibility of the animal security department, which provided the animals with sufficient diet and fresh drinking water daily.
Experimental grouping: male db/db mice (20±2 g) were selected, and 18 male mice in each group were tested. The experimental groups included normal control group (db/m, n=18), model group (db/db, n=18), obacunone group (db/db, n=18), isoobacunoic acid group (db/db, n=18), obacunone glycoside group (db/db, n=18), saxagliptin group (db/db, n=18), obacunone/saxagliptin combination group (db/db, n=18), isoobacunoic acid/saxagliptin combination group (db/db, n=18), obacunone glycoside/saxagliptin combination group (db/db, n=18). […]

For assay [2], the system named is db/db mice. In words: Blood glucose in mouse type II diabetes model (limonoid compound, linagliptin or combination). Particulars: single administration 0.2 g/kg per day by gavage, two weeks, 1 h after the last administration, mean ± SD.
Description: (§3) In the present embodiment, the limonoid compound was selected from nomilin, deacetylnomilin, nomilin acid, deacetylnomilin acid glycoside, and linagliptin single administration group, nomilin single administration group, deacetylnomilin single administration group, nomilin acid single administered group, deacetylnomilin acid glycoside single administration group, and respective combination thereof with linagliptin administration groups were set.
as §2
(§4) Experimental grouping: male db/db mice (20±2 g) were selected, 18 male mice in each group were tested, and drinking bottles were sterilized weekly. […]

Assay [3] has as its system db/db mice. In words: Serum insulin (Elisa) in mouse type II diabetes model (limonoid compound, linagliptin or combination). Particulars: single administration 0.2 g/kg per day by gavage, two weeks, mean ± SD.
Description: as §3, §2, §4

Assay [4] concerns db/db mice. Put plainly: Serum leptin (Elisa) in mouse type II diabetes model (limonoid compound, saxagliptin or combination). Particulars: single administration 0.04 g/kg per day by gavage, two weeks, mean ± SD.
Description: as §1
as §2, with “daily. […]” for “daily.”

The test system of assay [5] is mouse pancreatic islet β-cell injury model (ICR mice modeled with streptozotocin). In words: Blood glucose in mouse pancreatic islet β-cell injury model (limonoid compound, sitagliptin or combination). Particulars: STZ mice, single administration 0.02 g/kg per day by gavage, two weeks, 1 h after the last administration, mean ± SD. From the text:
In this example, a mouse pancreatic islet β-cell injury model was established by modeling ICR mice with streptozotocin (STZ) (Li Nan et al., Protective effect of pine pollen on kidney damage in diabetic nephropathy mice, Science and Technology Review, 2014, 32 (4/5): 95-99), and used to complete the evaluation of hypoglycemic effect in animals (this model could simulate pancreatic islet β-cell damage state of type I and type II diabetics). The limonoid compound was selected from the group consisting of limonin, isolimonic acid, limonin glycoside, and isolimonic acid glycoside, and sitagliptin single administration group, limonin single administration group, isolimonic acid single administration group, limonin glycoside singe administration group, isolimonic acid glycoside singe administration group, and respective combination thereof with sitagliptin administration groups were set. Conditions of experimental feeding: ICR mice (20±2 g), aged 6 weeks, purchased from Zhejiang Academy of Medical Sciences, and subjected to experimental feeding after 7 days of preliminary feeding. […] The data were expressed as mean and standard deviation. The data before and after were analyzed by t-test, and P<0.05 was considered statistically significant.

Assay [6] has the same test system. Put plainly: Blood glucose in mouse pancreatic islet β-cell injury model (limonoid compound, vildagliptin or combination). Particulars: STZ mice, single administration 0.1 g/kg per day by gavage, two weeks, 1 h after the last administration, mean ± SD. The protocol:
It should be noted that the conditions for raising the mice were as follows: the temperature was 23±1° C., the humidity was 55±10%, the lights were turned on between 7 am and 7 pm (the lights were turned off at other time), and the mice were allowed to freely take in water and feed. The experimental feed was mouse growth-stable feed (GB M2118), and the daily feeding and management of the animals were under the responsibility of the animal security department, which provided the animals with sufficient diet and fresh drinking water daily.
SPSS 16.0 software was used for statistical analysis. The data were expressed as mean and standard deviation. The data before and after were analyzed by t-test, and P<0.05 was considered statistically significant.

`CC1(C)O[C@@H](CC(=O)O)[C@]2(C)[C@H]3CC[C@@]4(C)[C@H](c5ccoc5)OC(=O)[C@H]5O[C@]54[C@]3(C)C(=O)C[C@@H]12` [Isoobacunoic acid, isoobacunoic acid]: the Blood glucose value in assay [1] is recorded as 14.6 ± 3.1 mmol/L.

`CC#CCn1c(N2CCC[C@@H](N)C2)nc2c1c(=O)n(Cc1nc(C)c3ccccc3n1)c(=O)n2C` [Linagliptin, linagliptin]: the Blood glucose value in assay [2] is 11.9 ± 2.1 mmol/L. The Insulin in assay [3] is 8.00 ± 1.94 pg/mL.

As for `CC1(C)OC(=O)C=C[C@]2(C)[C@H]3CC[C@@](C)([C@@H](O[C@@H]4O[C@H](CO)[C@@H](O)[C@H](O)[C@H]4O)c4ccoc4)[C@@]4(O[C@@H]4C(=O)O)[C@]3(C)C(=O)C[C@@H]12` [Obacunone glycoside, obacunone glycoside], the Blood glucose value in assay [1] amounted to 13.6 ± 2.9 mmol/L.

Regarding `N#C[C@@H]1C[C@@H]2C[C@@H]2N1C(=O)[C@@H](N)C12CC3CC(CC(O)(C3)C1)C2` [Saxagliptin, saxagliptin], the Blood glucose value in assay [1] was found to be 13.9 ± 3.5 mmol/L. In addition, the Leptin in assay [4] came out at 32.52 ± 5.11 pg/mL.

Consider `N[C@@H](CC(=O)N1CCn2c(nnc2C(F)(F)F)C1)Cc1cc(F)c(F)cc1F` [Sitagliptin, sitagliptin], for which, in assay [5], the Blood glucose value came to 21.7 ± 4.9 mmol/L.

Take `N#C[C@@H]1CCCN1C(=O)CNC12CC3CC(CC(O)(C3)C1)C2` [Vildagliptin, vildagliptin]: the Blood glucose value in assay [6] is 16.9 ± 2.6 mmol/L.
